# Tests used:
# [1] = test system: Fusarium solani planktonic cells; design: method as in PMID 17240982; settings: cited from earlier work
# [2] = test system: B16F10 melanoma cells in C57BL/6 mice; assay: Experimental B16F10 melanoma lung metastasis, nodule count; format: in vivo; settings: for Lung nodules: day 21, mean ± SEM
# Excerpt: Figure 6 Protective effects of Psd1 on a model of experimental lung metastasis in vivo. B16F10 mouse melanoma tumors were established by intravenous injection of 2.5 × 10^5 B16F10 cells into C57BL/6 mice. (A) After 21 days, mice from each experimental group were sacrificed, and the number of visible lung metastatic nodules was quantified. Treatment of the animals inoculated with melanoma cells plus Psd1 caused a dose-dependent reduction in the number of lung metastases. Black lines represent the mean ± SEM of two independent experiments analyzed by one-way ANOVA and Bonferroni’s multiple comparison test. **** p < 0.0001 B16F10 vs. phosphate buffer solution (PBS); **** p < 0.0001 B16F10 vs. Psd1 1 mg/kg; **** p < 0.0001 B16F10 vs. just Psd1 1 mg/kg (without B16F10 cells); *** p < 0.001 B16F10 vs. Psd1 3 mg/kg; * p < 0.05 B16F10 vs. Psd1 0.5 mg/kg. (B) Representative images of lung metastatic nodules from animals that received just PBS or B16F10 cells alone or together with 0.1 mg/kg or 1 mg/kg Psd1. Bar = 2 mm. (C) Animal weights were acquired every two days. Weight variation was calculated as (weight on that day (weight of the first day × 100 − 100)). Only the days with higher weight differences between animals injected with only B16F10 cells and those that received cells plus Psd1 or PBS alone are represented. All of the values represent the mean ± SEM of two independent experiments analyzed by two-way ANOVA. *** p < 0.001 B16F10 vs. PBS at […]; *** p < 0.001 B16F10 vs. Psd1 0.1 mg/kg at 9 weeks; ** p < 0.01 B16F10 vs. Psd1 0.1 mg/kg at 13 weeks; *** p < 0.001 B16F10 vs. Psd1 1 mg/kg at 9 and 13 weeks; ** p < 0.01 B16F10 vs. Psd1 1 mg/kg at 17 weeks; * p < 0.05 B16F10 vs. Psd1 1 mg/kg at 7 weeks; *** p < 0.001 B16F10 vs. Psd1 3 mg/kg at 7 and 9 weeks.
# Eight-week-old C57BL/6 female mice (CEMIB, Campinas–Brasil) weighing approximately 20 g were individually marked and separated according to their experimental groups. These animals were kept in cages 20 cm × 35 cm × 15 cm (width × length × height) with free access to water and food under day and night cycles that lasted twelve hours with a controlled temperature (20–25 °C) in our own facilities. This study was approved by the Ethics Committee on the Use of Animals of Health Science Centre of the Federal University of Rio de Janeiro, Brazil (CEUA/CCS/UFRJ, CONCEA registered number 01200.001568/2013.87, approved protocol IBCCF 163 at 28 August 2012). All animals received humane care in compliance with the “Principles of Laboratory Animal Care” formulated by the National Society for Medical Research and the “Guide for the Care and Use of Laboratory Animals” prepared by the National Academy of Sciences, USA, and the National Council for Controlling Animal Experimentation, Ministry of Science, Technology and Innovation (CONCEA/MCTI), Brazil.
# Mice were injected via the lateral tail vein with 100 µL of PBS only (137 mM NaCl, 2.7 mM KCl, 10 mM Na2HPO4, 2 mM KH2PO4, pH 7.4) (n = 17) or 100 µL of B16F10 cells (2.5 × 10^5 cells/animal suspended in DMEM) (n = 15). Other groups of animals were intravenously co-injected with a freshly prepared, in order to avoid B16F10 cells death, mix of B16F10 cells plus 0.1 mg/kg (n = 8), 0.5 mg/kg (n = 8), 1 mg/kg (n = 17), or 3 mg/kg Psd1 (n = 7).
# Another group of animals received 1 mg/kg of Psd1 only (n = 9) to evaluate Psd1 toxicity. Twenty-one days later, the animals were anaesthetized and sacrificed, and the black lung melanoma nodules were counted and measured under a dissecting microscope (Zeiss AxioPhot fluorescence microscope (Carl-Zeiss, Oberkochen, Germany)).
# [3] = test system: recombinant cyclin F-GST; assay: Surface plasmon resonance, Psd1-cyclin F interaction; format: binding
# Description: Surface plasmon resonance (SPR) assays were run on a Biacore X (GE Healthcare Life Sciences, Amersham, UK) apparatus in real time using a CM5 sensor chip at 25 °C. Briefly, CM5 chip activation was performed by injection of 100 µL of a 1:1 mixture of amine coupling kit (750 mg 1-ethyl-3-(3-dimethylaminopropyl) carbodiimide hydrochloride (EDC), 115 mg N-hydroxysuccinimide (NHS), 2 × 10.5 mL 1.0 M ethanolamine-HCl pH 8.5) with a continuous flow of 2 µL/min. Then, 100 µL of […] recombinant cyclin F-GST diluted in 10 mM sodium acetate pH 4.0 buffer was immobilized by amine coupling onto the carboxylate dextran layer of CM5 with the same flow. This was injected with 80 µL of 1 M ethanolamine pH 8.0 to block the remaining binding free sites of the protein. To evaluate the interaction of Psd1 with the cyclin F protein, increasing concentrations of the peptide (10–240 µM) in 100 µL of running buffer (10 mM HEPES, 150 mM NaCl, pH 7.4) were injected using a flow rate of 15 µL/min for 4 min. After the injection ended, the dissociation phase was measured in not less than 300 s. The Psd1-GST-cyclin F interaction curves were subtracted from the respective curves obtained for Psd1-GST to discount possible artifact interactions with GST alone. […]
# [4] = test system: several fungal species; settings: cited from earlier work
# Excerpt: The mechanism of action proposed for Psd1 antifungal activity includes its interaction with specific cell wall/membrane lipid targets, such as C8-desaturated and C9-methylated glucosylceramide (GlcCer), a fungal exclusive GSL, and ergosterol.
# [5] = test system: HSP-2 (human hepatocyte) cells; assay: Cell viability, healthy HSP-2 cells; format: cell-based; settings: 6 and 30 µM, 3 h
# [6] = test system: A-431 (human epidermoid carcinoma) cells; assay: MTT cell viability, A-431 tumor cells; format: cell-based; settings: 24 h, p < 0.001
substance,measurement,setting,value
"Psd1: 46-amino acid residue plant defensin isolated from pea seeds, expressed in Pichia pastoris (PDB 1JKZ) (KTCEHLADTYRGVCFTNASCDDHCKNKAHLISGTCHNWKCFCTQNC)",Internalization and cell cycle effect,[1],"internalized in Fusarium solani planktonic cells, directing their cell cycle impairment and causing fungal endoreduplication"
same,"Number of lung nodules, result in words","[2]; 0.1 mg/kg i.v., day 21",not effective in reducing the number of nodules
same,"Size of lung nodules, result in words","[2]; 0.1 mg/kg i.v., day 21, data not shown",effective in reducing their size
same,Lung nodules,"[2]; 0.5 mg/kg i.v. co-injected with B16F10 cells, B16F10 only average 43 nodules, p < 0.05",10.2 ± 2.6 nodules
same,Decrease of number of pulmonary nodules,"[2]; 0.5 mg/kg i.v., day 21",75%
same,Lung nodules in animals without B16F10 cells,"[2]; 1.0 mg/kg Psd1 alone, i.v., day 21",did not present lung nodules
same,Lung nodules,"[2]; 1.0 mg/kg i.v. co-injected with B16F10 cells, p < 0.0001",4.82 ± 1.88 nodules
same,Decrease of number of pulmonary nodules,"[2]; 1.0 mg/kg i.v., day 21",88%
same,Lung nodules,"[2]; 3.0 mg/kg i.v. co-injected with B16F10 cells, p < 0.001",0.14 ± 0.14 nodules
same,"Tumor development, result in words","[2]; 3.0 mg/kg i.v., day 21",completely abolished tumor development
same,"Lung metastasis nodules, result in words","[2]; i.v., above 0.5 mg/kg",completely inhibited the formation of B16F10 lung metastasis nodules
same,Lowest dose with significant reduction of lung metastasis colonization,"[2]; i.v., day 21, dose-dependent",0.5 mg/kg
same,"SPR association phase, onset of response","[3]; after Psd1 injection, 15 µL/min, 4 min",80 s
same,SPR dissociation phase,[3]; after injection ended,full dissociation phase was observed
same,Antimicrobial activity against fungi,[4],well-documented antimicrobial activity against several fungal species
same,HSP-2 cell viability,[5],no alteration in cell viability
same,"A-431 growth, result in words (MTT)",[6]; 12.5 µM,decreased growth
same,Maximum reduction of A-431 growth (MTT),[6]; 50 µM,20%

# Source: PMC7219108, “Pisum sativum Defensin 1 Eradicates Mouse Metastatic Lung Nodules from B16F10 Melanoma Cells” (International Journal of Molecular Sciences, 2020)
